According to patent publication US20210038570A1, “COMPOSITIONS AND METHODS FOR TREATING CUTANEOUS FIBROSIS” (Timber Pharmaceuticals, Inc., priority 2018, published 2021):

Tests used:
[1] = system: donor one normal human dermal fibroblasts induced with TGF-β1; assay: Scratch (wound closure) assay, donor one NHDFs induced with TGF-β1; format: cell-based; settings: for Scratch assay distance change: 50 ng/mL TGF-β1, 24 hours; for Effect on migration of fibroblasts (in words): donor one NHDFs, statistics at 100 μM vs vehicle control (FIG. 1)
Protocol: The effect of sitaxentan in a wound closure assay was measured using donor one normal human dermal fibroblasts induced with TGF-β1 into a profibrotic phenotype. […] For this assay the cells were grown to confluence, a scratch/ablation, i.e. “wound”, was created, and migration across the cleared zone was tracked. See, http://journals.plos.org/plosone/article?id=10.1371/journal.pone.0007438 and Wu, M. et al. Rosiglitazone abrogates bleomycin-induced scleroderma and blocks profibrotic responses through peroxisome proliferator-activated receptor-gamma. Am J Pathol174, 519-533, doi:10.2353/ajpath.2009.080574 (2009) donor one normal human dermal fibroblast cells (LLCT FC0024 lot 03869_ fibroblast) were seeded to confluence in 96 well plates in 10% fetal bovine serum (FBS) Dulbecco's modified eagle medium (DMEM). The cells were washed to remove the FBS, and serum free media was added for 16 hr overnight (O/N). Scratch assays were performed across each confluent monolayer. […] The cells were treated with increasing concentrations (1 μM, 3 μM, 10 μM, 30 μM, and 100 μM) of vehicle control, sitaxentan, and bosentan (as a comparator compound), in the presence of 50 ng/mL TGF-β1 to induce fibrogenesis. Six replicate samples were run for each concentration. Time zero images were taken and initial distance of the scratch/ablation recorded. The samples were incubated for 24 hours at 37° C., after which the media was removed and […] calcein acetoxymethyl (calcein AM) was added. The samples were incubated for 30 minutes. Images were taken and the distance of the scratch/ablation recorded. Decreases in distance indicated “wound” closure. Distances were calculated and analyzed using GraphPad Prism 7.

[2] = oral bosentan; cited from earlier work
[3] = system: donor one normal human dermal fibroblasts induced with TGF-β1; assay: Collagen production, AlphaLISA hPIP assay; format: cell-based; settings: for human procollagen Type I C-peptide (HPIP) level: 50 ng/mL TGF-β1, 48 hours; for Effect on elevated collagen levels (in words): statistics at 100 μM vs vehicle control and between groups (FIG. 3)
Protocol: The effect of sitaxentan on collagen production was measured in an AlphaLISA assay using donor one normal human dermal fibroblasts induced with TGF-β1 into a profibrotic phenotype. For this assay cells were grown for 48 hours in the presence of vehicle control, sitaxentan, and bosentan. See, http://www.perkinelmer.com/product/alphalisa-hpip-collagen-[…]. An AlphaLISA assay was used, which is a variation of FRET (Fluorescence resonance energy transfer) technology that allows for the detection of molecules of interest in a no-wash, highly sensitive, quantitative assay. In an AlphaLISA assay, a biotinylated anti-analyte antibody binds to Streptavidin-coated donor beads while another anti-analyte antibody is conjugated to AlphaLISA Acceptor beads. In the presence of the analyte, the beads come into close proximity. The excitation of the donor beads cause the release of singlet oxygen molecules that trigger a cascade of energy transfer in the acceptor beads, resulting in a sharp peak of light emission at 615 nm. donor one normal human dermal fibroblast cells (LLCT FC0024 lot 03869_ fibroblast) were seeded to confluence in 96 well plates in 10% fetal bovine serum (FBS) Dulbecco's modified eagle medium (DMEM). The cells were washed to remove the FBS, and serum free media was added overnight (O/N). The cells were then stimulated with 50 ng/mL TGF-β1 and treated. The supernatant media above the cells in the wells was collected and diluted 1:20 in serum-free DMEM media. 5 μL of each hPIP analyte standard or 5 μL of sample was added. 10 μL of 5× […] Acceptor beads was added (10 μg/mL final). The plate was incubated 30 minutes at 23° C. 10 μL of 5× Biotinylated Anti-hPIP Antibody was added (1 nM). The plate was incubated 60 minutes at 23° C. 25 μL of 2× Streptavidin-Donor beads were added (40 μg/mL final). The plate was incubated 30 minutes at 23° C. in the dark. The plate was read using a Perkin Elmer EnVision-Alpha Reader (615 nm). Data were analyzed using GraphPad Prism 7. Three to four replicates were run for each sample.

[4] = system: donor one normal human dermal fibroblasts induced with TGF-β1; assay: Cell cytotoxicity assay (bis-AAF-R110 fluorescence); format: cell-based; settings: for Cell cytotoxicity, relative fluorescence units: 50 ng/mL TGF-β1, 48 hours; for Cytotoxicity compared to the vehicle control (in words): statistics at 100 μM (FIG. 5); for Cytotoxicity, bosentan compared with sitaxentan (in words): statistics at 100 μM between groups (FIG. 5)
Protocol: (§1) The effect of sitaxentan on cell viability, cell cytotoxicity, and apoptosis was measured in an assay using donor one normal human dermal fibroblasts induced with TGF-β1 into a profibrotic phenotype. For these assays cells were grown for 48 hours in the presence of vehicle control, sitaxentan, and bosentan. The appropriate assay reagents and measuring techniques were used as indicated herein. donor one normal human dermal fibroblast cells (LLCT FC0024 lot 03869_ fibroblast) were seeded to confluence in 96 well plates in 10% fetal bovine serum (FBS) Dulbecco's modified eagle medium (DMEM). The cells were washed to remove the FBS, and serum free media is added overnight (O/N). The cells were then stimulated with 50 ng/mL TGF-β1 and treated for 48 hours. The following reagents were used for the different assays: For the cell viability/cytotoxicity assay: A master mix of the viability/cytotoxicity reagent was made by combining 10 uL of each substrate (GF-AFC and bis-AAF-R110) to 2 mLs of Assay Buffer (Promega, Cat #G6320). 20 μl of this viability/cytotoxicity reagent was then added to each well and briefly mixed. […] Data were analyzed using GraphPad Prism 7. Six to nine replicates were run for each sample.

[5] = system: donor one normal human dermal fibroblasts induced with TGF-β1; assay: Apoptosis assay (Caspase-Glo 3/7 luminescence); format: cell-based; settings: for Apoptosis, relative light units: 50 ng/mL TGF-β1, 48 hours; for Effect on apoptosis (in words): statistics at 100 μM vs vehicle control and between groups (FIG. 6)
Protocol: The effect of sitaxentan on cell viability, cell cytotoxicity, and apoptosis was measured in an assay using donor one normal human dermal fibroblasts induced with TGF-β1 into a profibrotic phenotype. For these assays cells were grown for 48 hours in the presence of vehicle control, sitaxentan, and bosentan. The appropriate assay reagents and measuring techniques were used as indicated herein. donor one normal human dermal fibroblast cells (LLCT FC0024 lot 03869_ fibroblast) were seeded to confluence in 96 well plates in 10% fetal bovine serum (FBS) Dulbecco's modified eagle medium (DMEM). The cells were washed to remove the FBS, and serum free media is added overnight (O/N). The cells were then stimulated with 50 ng/mL TGF-β1 and treated for 48 hours. For the apoptosis assay: 100 μl of Caspase-Glo® 3/7 Reagent (Promega, Cat #G6320), for the apoptosis assay, was subsequently added after the viability/cytotoxicity fluorescent reads and briefly mixed. The plate was incubated for an additional 30 minutes at room temperature prior to the measurement of luminescence to detect apoptosis. Data were analyzed using GraphPad Prism 7. Six to nine replicates were run for each sample.

[6] = system: donor one normal human dermal fibroblasts induced with TGF-β1; assay: Cell viability assay (GF-AFC fluorescence); format: cell-based; settings: 50 ng/mL TGF-β1, 48 hours
Protocol: as §1

[7] = in vivo; cited from earlier work

Row | SMILES | Scratch assay distance change ([1]; 1 μM) | Scratch assay distance change ([1]; 3 μM) | Scratch assay distance change ([1]; 10 μM) | Scratch assay distance change ([1]; 30 μM) | Scratch assay distance change ([1]; 100 μM) | Effect on migration of fibroblasts (in words) [1] | human procollagen Type I C-peptide (HPIP) level ([3]; 1 μM) | human procollagen Type I C-peptide (HPIP) level ([3]; 3 μM) | human procollagen Type I C-peptide (HPIP) level ([3]; 10 μM) | human procollagen Type I C-peptide (HPIP) level ([3]; 30 μM) | human procollagen Type I C-peptide (HPIP) level ([3]; 100 μM) | Effect on elevated collagen levels (in words) [3] | Cell cytotoxicity, relative fluorescence units ([4]; 1 μM) | Cell cytotoxicity, relative fluorescence units ([4]; 3 μM) | Cell cytotoxicity, relative fluorescence units ([4]; 10 μM) | Cell cytotoxicity, relative fluorescence units ([4]; 30 μM) | Cell cytotoxicity, relative fluorescence units ([4]; 100 μM) | Cytotoxicity compared to the vehicle control (in words) [4] | Cytotoxicity, bosentan compared with sitaxentan (in words) [4] | Apoptosis, relative light units ([5]; 1 μM) | also measured
1 | COc1ccccc1Oc1c(NS(=O)(=O)c2ccc(C(C)(C)C)cc2)nc(-c2ncccn2)nc1OCCO [BOS] | 478 µm | 356 µm | 359 µm | 535 µm | 414 µm | no significant effect | 8.2 ng/mL | 8.6 ng/mL | 7.9 ng/mL | 7.1 ng/mL | 6.8 ng/mL | significantly decreased elevated collagen levels | 4256.9 RFUs | 3954.2 RFUs | 3764.0 RFUs | 4607.5 RFUs | 3929.0 RFUs | neither bosentan nor sitaxentan was significantly more cytotoxic than the vehicle control | significantly more cytotoxic than sitaxentan | 39366.8 RLUs | Cessation of treatment due to liver enzyme abnormalities, share of patients [2]: about 5%; Liver enzyme abnormalities, share of patients affected [2]: about 10%; Apoptosis, relative light units ([5]; 3 μM): 38639.8 RLUs; Apoptosis, relative light units ([5]; 10 μM): 38586.7 RLUs; Apoptosis, relative light units ([5]; 30 μM): 42825.2 RLUs; Apoptosis, relative light units ([5]; 100 μM): 43330.7 RLUs; Effect on apoptosis (in words) [5]: elevated; Cell viability, relative fluorescence units ([6]; 1 μM): 5406.8 RFUs; Cell viability, relative fluorescence units ([6]; 3 μM): 5548.5 RFUs; Cell viability, relative fluorescence units ([6]; 10 μM): 5521.2 RFUs; Cell viability, relative fluorescence units ([6]; 30 μM): 5537.0 RFUs; Cell viability, relative fluorescence units ([6]; 100 μM): 5584.3 RFUs
2 | Cc1cc2c(cc1CC(=O)c1sccc1S(=O)(=O)Nc1onc(C)c1Cl)OCO2 [SIT, N-(4-Chloro-3-methyl-5-isoxazolyl)-2-[(2-methyl-4,5-methylenedioxyphenyl)-acetyl]thiophene-3-sulfonamide] | 506 µm | 557 µm | 496 µm | 494 µm | 269 µm | significantly reduced the migration | 7.0 ng/mL | 7.1 ng/mL | 6.4 ng/mL | 5.8 ng/mL | 2.2 ng/mL | significantly more efficacious than bosentan and returning collagen levels to untreated / uninduced levels | 4643.9 RFUs | 5058.3 RFUs | 4741.7 RFUs | 3837.5 RFUs | 2911.3 RFUs | neither bosentan nor sitaxentan was significantly more cytotoxic than the vehicle control | significantly less cytotoxic | 37593.4 RLUs | Metabolism [7]: hepatic (CYP2C9- and CYP3A4-mediated); Protein binding [7]: > 99%; Apoptosis, relative light units ([5]; 3 μM): 39162.8 RLUs; Apoptosis, relative light units ([5]; 10 μM): 39512.0 RLUs; Apoptosis, relative light units ([5]; 30 μM): 46053.5 RLUs; Apoptosis, relative light units ([5]; 100 μM): 51050.2 RLUs; Effect on apoptosis (in words) [5]: significantly more potent effect than bosentan; Cell viability, relative fluorescence units ([6]; 1 μM): 5678.3 RFUs; Cell viability, relative fluorescence units ([6]; 3 μM): 5639.0 RFUs; Cell viability, relative fluorescence units ([6]; 10 μM): 5600.5 RFUs; Cell viability, relative fluorescence units ([6]; 30 μM): 5250.8 RFUs; Cell viability, relative fluorescence units ([6]; 100 μM): 5171.0 RFUs
